Laboratory results taken from the NIST ThermoML archive (doi:10.1021/je800713c).

Assays:
[1] = mn = molality of the nth substance listed, in mol/kg; conditions: 298.15 K, 101 kPa, Liquid
[2] = cn = amount concentration of the nth substance listed, in mol/dm3; conditions: 298.15 K, 101 kPa, Liquid, Alternating current cell with electrodes

CC(C)C[C@H](NC(=O)CN)C(=O)O [glycyl-L-leucine] + O
[1], Vibrating tube method
Conditions | mass density [kg/m3]
m1 = 0.01944 | 1000.64
m1 = 0.02958 | 1001.13
m1 = 0.0395 | 1001.61
m1 = 0.04928 | 1002.08
m1 = 0.057 | 1002.44
m1 = 0.07128 | 1003.12
m1 = 0.07696 | 1003.39
m1 = 0.09125 | 1004.06

CC(C)[C@H](NC(=O)CN)C(=O)O [glycyl-L-valine] + O
[1], Vibrating tube method
Conditions | mass density [kg/m3]
m1 = 0.02261 | 1000.88
m1 = 0.03982 | 1001.76
m1 = 0.06223 | 1002.9
m1 = 0.07858 | 1003.73
m1 = 0.1017 | 1004.89
m1 = 0.1513 | 1007.38
m1 = 0.1799 | 1008.77

NCC(=O)NCC(=O)O [glycylglycine] + O
[1], Vibrating tube method
Conditions | mass density [kg/m3]
m1 = 0.06033 | 1003.05
m1 = 0.08146 | 1004.21
m1 = 0.1018 | 1005.33
m1 = 0.1481 | 1007.84
m1 = 0.2504 | 1013.33
m1 = 0.2965 | 1015.78
m1 = 0.3421 | 1018.08

CCCC(=O)[O-].[Na+] [sodium butyrate] + O
Conditions | mass density [kg/m3] | molar conductivity [S·m2/mol]
[1], m1 = 0.5 | 1016.31 | –
[1], m1 = 1 | 1033.73 | –
[1], m1 = 1.5 | 1049.36 | –
[1], m1 = 2 | 1064.03 | –
[2], c1 = 0.0003234 | – | 0.00796
[2], c1 = 0.001116 | – | 0.00795
[2], c1 = 0.001273 | – | 0.00794
[2], c1 = 0.001488 | – | 0.00792
[2], c1 = 0.00188 | – | 0.00788
[2], c1 = 0.002076 | – | 0.00787
[2], c1 = 0.00243 | – | 0.00784
[2], c1 = 0.003167 | – | 0.00766
[2], c1 = 0.006298 | – | 0.00753
[2], c1 = 0.008849 | – | 0.00744
[2], c1 = 0.01124 | – | 0.00737
[2], c1 = 0.01353 | – | 0.00732
[2], c1 = 0.0155 | – | 0.00727
[2], c1 = 0.01721 | – | 0.00724
[2], c1 = 0.01916 | – | 0.0072
[2], c1 = 0.02091 | – | 0.00717
[2], c1 = 0.02284 | – | 0.00714
[2], c1 = 0.02481 | – | 0.0071
[2], c1 = 0.02647 | – | 0.00707

O [water] + CC(C)C[C@H](NC(=O)CN)C(=O)O
Conditions | mass density [kg/m3]
[1], Vibrating tube method, m2 = 0 | 999.705

O [water] + CC(C)[C@H](NC(=O)CN)C(=O)O
Conditions | mass density [kg/m3]
[1], Vibrating tube method, m2 = 0 | 999.705

O [water] + NCC(=O)NCC(=O)O
Conditions | mass density [kg/m3]
[1], Vibrating tube method, m2 = 0 | 999.705
